Test results as given in ChEMBL document CHEMBL1201862, “PubChem BioAssay data set” (2004).
Calls of active or inactive are those of the source.

Columns and labels:
[1] = target: T1, Replicative DNA helicase DnaB (Mycobacterium tuberculosis, UniProt P9WMR3); test: DnaB intein splicing inhibitors, dose response, biochemical, cell-free fluorescence (AID 449749); type: functional
T1 sequence (P9WMR3 whole entry): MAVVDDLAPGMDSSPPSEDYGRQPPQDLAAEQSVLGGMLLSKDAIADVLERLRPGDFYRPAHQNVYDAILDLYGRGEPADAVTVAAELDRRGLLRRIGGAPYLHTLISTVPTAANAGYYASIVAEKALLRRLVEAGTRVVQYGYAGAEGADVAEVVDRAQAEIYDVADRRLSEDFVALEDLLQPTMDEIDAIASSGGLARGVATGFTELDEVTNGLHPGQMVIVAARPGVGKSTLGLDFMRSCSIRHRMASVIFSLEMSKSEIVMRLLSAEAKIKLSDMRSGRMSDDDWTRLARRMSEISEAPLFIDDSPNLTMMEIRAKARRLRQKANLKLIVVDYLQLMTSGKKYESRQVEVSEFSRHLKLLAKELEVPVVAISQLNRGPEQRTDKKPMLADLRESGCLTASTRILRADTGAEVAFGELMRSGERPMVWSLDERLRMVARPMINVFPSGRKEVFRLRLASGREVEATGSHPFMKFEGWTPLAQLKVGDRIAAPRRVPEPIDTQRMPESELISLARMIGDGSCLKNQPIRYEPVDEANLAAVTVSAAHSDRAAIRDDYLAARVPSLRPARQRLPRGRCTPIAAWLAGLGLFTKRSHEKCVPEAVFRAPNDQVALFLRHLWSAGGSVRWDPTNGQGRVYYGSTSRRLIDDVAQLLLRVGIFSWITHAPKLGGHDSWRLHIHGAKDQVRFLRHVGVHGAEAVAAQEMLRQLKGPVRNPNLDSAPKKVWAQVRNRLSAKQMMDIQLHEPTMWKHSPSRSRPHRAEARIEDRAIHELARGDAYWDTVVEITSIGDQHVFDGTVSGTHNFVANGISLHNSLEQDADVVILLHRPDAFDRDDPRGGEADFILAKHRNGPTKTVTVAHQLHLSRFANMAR

[2] = target: Nonstructural protein 1 (Influenza A virus, UniProt Q194T2); type: functional, Influenza A virus (A/California/07/2009(H1N1))
[3] = target: T2, Protein RecA (Mycobacterium tuberculosis, UniProt P9WHJ3); test: Fluorescence Cell-Free Homogeneous Dose Retest to Identify Inhibitors of RecA-Intein Splicing Activity. [Related pubchem assays (depositor defined):AID2097, AID2223, AID489010, AID492950]; type: functional
T2 sequence (P9WHJ3 whole entry): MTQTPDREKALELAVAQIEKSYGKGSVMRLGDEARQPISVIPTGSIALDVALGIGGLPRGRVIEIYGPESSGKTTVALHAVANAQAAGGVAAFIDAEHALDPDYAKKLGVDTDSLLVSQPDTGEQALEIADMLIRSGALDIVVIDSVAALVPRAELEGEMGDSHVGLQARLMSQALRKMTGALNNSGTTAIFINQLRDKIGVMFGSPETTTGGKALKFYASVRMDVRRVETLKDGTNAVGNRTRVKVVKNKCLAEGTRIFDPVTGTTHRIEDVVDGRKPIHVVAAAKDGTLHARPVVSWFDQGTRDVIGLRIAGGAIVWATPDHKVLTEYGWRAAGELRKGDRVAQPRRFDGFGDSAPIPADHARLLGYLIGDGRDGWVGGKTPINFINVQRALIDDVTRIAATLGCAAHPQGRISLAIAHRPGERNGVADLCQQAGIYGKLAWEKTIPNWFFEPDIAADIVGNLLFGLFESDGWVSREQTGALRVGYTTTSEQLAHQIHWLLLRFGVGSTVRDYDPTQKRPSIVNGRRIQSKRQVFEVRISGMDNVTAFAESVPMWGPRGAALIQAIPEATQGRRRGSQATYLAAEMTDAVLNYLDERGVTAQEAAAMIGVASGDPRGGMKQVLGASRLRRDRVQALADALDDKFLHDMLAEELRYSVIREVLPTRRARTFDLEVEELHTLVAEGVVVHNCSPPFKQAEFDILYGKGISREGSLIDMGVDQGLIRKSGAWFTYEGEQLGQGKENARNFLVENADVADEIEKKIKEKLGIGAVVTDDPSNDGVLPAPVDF

[4] = target: Large T antigen (Simian virus 40, UniProt P03070); type: functional, Betapolyomavirus macacae;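 note: Confirmatory-stage PubChem screen for compounds that inhibit SV40 T antigen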
[5] = HEK-293T viability loss after treatment – luminescence, T-cell screen hits, cytotoxicity control for TCR NF-kB inhibitor project, dose response (AID 489026); type: functional, cell-based;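 note: cells exposed to compound about 14 hours before the viability readout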
[6] = target: T3, Heat shock factor protein 1 (Mus musculus, UniProt P38532); test: decrease of HSF1-responsive luciferase luminescence – cell-based, NIH3T3, dose retest, confirmation (AID 2382); type: functional;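 note: NIH3T3 fibroblasts with HSF1-driven luciferase reporter stressed by proteasome inhibitor MG132; luminescence from HSF1-driven luciferase expression after 8 hours of MG132 stress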
T3 sequence (P38532 whole entry): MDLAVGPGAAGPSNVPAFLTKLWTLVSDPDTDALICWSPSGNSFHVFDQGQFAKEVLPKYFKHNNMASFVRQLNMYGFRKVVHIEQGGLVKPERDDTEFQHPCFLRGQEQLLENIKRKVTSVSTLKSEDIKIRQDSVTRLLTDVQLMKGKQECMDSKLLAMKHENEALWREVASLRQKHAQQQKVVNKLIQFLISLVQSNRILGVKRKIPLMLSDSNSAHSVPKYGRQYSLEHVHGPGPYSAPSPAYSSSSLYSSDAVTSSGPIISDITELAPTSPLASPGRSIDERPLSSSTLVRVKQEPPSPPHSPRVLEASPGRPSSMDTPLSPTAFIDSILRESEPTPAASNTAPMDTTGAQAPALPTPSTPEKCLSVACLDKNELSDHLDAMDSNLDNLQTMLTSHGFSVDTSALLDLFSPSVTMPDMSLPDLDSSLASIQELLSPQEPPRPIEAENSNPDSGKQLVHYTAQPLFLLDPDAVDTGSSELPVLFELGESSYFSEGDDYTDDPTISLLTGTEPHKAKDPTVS

[7] = target: Genome polyprotein (dengue virus type 2, UniProt P29990); test: flavivirus cap methylation enzyme inhibition – biochemical, confirmation dose response, primary screen (AID 588689); type: functional
[8] = Trypanosoma cruzi growth suppression in host cells – NIH3T3 host cells, beta-gal luminescence, confirmation (AID 2044); type: functional, cell-based;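 note: intracellular parasites grown in NIH/3T3 mouse fibroblasts as host cells; luminescent beta-galactosidase reporter signal from transgenic T. cruzi replicating inside host cells; inhibitors lower the luminescence signal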
[9] = Luminescence Cell-Based Dose Response HTS to Identify Activators of Luciferase Translation or Activity in H4 […] Cells. [Related pubchem assays: 1829 (Project Summary), 1814 (Primary HTS)]; type: functional
[10] = microbe, parasite or virus in culture; type: functional; settings: Mycobacterium tuberculosis
[11] = test system: H4; test: Luminescence Cell-Based Dose Response HTS to Identify Activators of 5'UTR Stem-Loop Driven Prion Protein mRNA Translation in H4 Neuroglioblastoma Cells. [Related pubchem assays: 1829 (Project Summary), 1814 (Primary HTS)]; type: functional; settings: Homo sapiens
[12] = Luminescence Cell-Based Dose Confirmation HTS to Identify Activators of 5'UTR Stem-Loop Driven Alpha-Synuclein mRNA Translation in H4 Neuroglioblastoma Cells. [Related pubchem assays: 1829 (Project Summary), 1814 (Primary HTS)]; type: functional
[13] = NIH3T3 cell viability loss – ATP luminescence, mouse fibroblasts, counter-screen, dose response (AID 2010); type: functional, cell-based;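 note: cells exposed to compound for about 90 hours before reading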
[14] = viability of PTEN-deleted HCT116 cells – cell-based, HCT116 PTEN knockout, dose response (AID 1047); type: functional;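 note: HCT116 colon tumor cells with PTEN knocked out; cells exposed to compound for 60 hours before readout; potency for loss of cell viability measured by luminescence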
[15] = viability of HCT116 lacking mutant beta-catenin – cell-based, human colon tumor, dose response (AID 1045); type: functional;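 note: HCT116 colon tumor cells with beta catenin knocked out; cells exposed to compound for 60 hours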
[16] = HEK-293T cell viability reduction – luminescence, B-cell screen hits, cytotoxicity control for BCR NF-kB inhibitor project, dose response (AID 489021); type: functional, cell-based;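 note: HEK-293T cells carrying an NF-kB luciferase reporter; cells exposed to compound for about 14 hours before viability readout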
[17] = DRD fibroblast viability loss – cell-based, non-viral oncogenic, luminescence, dose response (AID 1934); type: functional; settings: Homo sapiens
[18] = test system: BJ; test: cells; type: functional, cell-based; settings: Homo sapiens
[19] = test system: BJ; test: BJ-TERT fibroblast viability loss – cell-based, RAS-independent, luminescence, dose response (AID 1933); type: functional; settings: Homo sapiens
[20] = test system: BJ; test: BJ-TERT-LT-ST fibroblast viability loss – cell-based, RAS-independent, luminescence, dose response (AID 1935); type: functional; settings: Homo sapiens;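 note: BJ fibroblasts immortalized with TERT plus LT and ST oncogenes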
[21] = Luminescence Cell-Based Dose Retest to Confirm Inhibitors of Cancer Stem Cells. [Related pubchem assays (depositor defined):AID2717, AID2721]; type: functional; settings: Homo sapiens
[22] = target: DNA dC->dU-editing enzyme APOBEC-3G (Homo sapiens, UniProt Q9HC16); test: Dose Response confirmation of small molecule APOBEC3G DNA Deaminase Inhibitors via a fluorescence-based single-stranded DNA deaminase assay. [Related pubchem assays (depositor defined):AID493012, AID493028]; type: functional
Chain of DNA dC->dU-editing enzyme APOBEC-3G (Q9HC16 whole entry): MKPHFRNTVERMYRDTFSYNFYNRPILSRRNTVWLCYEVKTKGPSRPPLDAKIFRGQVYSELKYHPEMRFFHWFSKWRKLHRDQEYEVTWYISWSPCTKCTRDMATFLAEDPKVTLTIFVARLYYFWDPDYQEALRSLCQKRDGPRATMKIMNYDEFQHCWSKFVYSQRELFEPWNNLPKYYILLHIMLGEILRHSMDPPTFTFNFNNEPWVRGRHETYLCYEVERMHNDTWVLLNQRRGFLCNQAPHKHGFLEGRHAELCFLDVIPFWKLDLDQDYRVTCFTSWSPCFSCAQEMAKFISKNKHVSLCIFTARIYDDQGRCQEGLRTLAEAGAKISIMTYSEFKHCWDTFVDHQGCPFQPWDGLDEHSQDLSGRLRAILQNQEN

Chain of Large T antigen (P03070 whole entry): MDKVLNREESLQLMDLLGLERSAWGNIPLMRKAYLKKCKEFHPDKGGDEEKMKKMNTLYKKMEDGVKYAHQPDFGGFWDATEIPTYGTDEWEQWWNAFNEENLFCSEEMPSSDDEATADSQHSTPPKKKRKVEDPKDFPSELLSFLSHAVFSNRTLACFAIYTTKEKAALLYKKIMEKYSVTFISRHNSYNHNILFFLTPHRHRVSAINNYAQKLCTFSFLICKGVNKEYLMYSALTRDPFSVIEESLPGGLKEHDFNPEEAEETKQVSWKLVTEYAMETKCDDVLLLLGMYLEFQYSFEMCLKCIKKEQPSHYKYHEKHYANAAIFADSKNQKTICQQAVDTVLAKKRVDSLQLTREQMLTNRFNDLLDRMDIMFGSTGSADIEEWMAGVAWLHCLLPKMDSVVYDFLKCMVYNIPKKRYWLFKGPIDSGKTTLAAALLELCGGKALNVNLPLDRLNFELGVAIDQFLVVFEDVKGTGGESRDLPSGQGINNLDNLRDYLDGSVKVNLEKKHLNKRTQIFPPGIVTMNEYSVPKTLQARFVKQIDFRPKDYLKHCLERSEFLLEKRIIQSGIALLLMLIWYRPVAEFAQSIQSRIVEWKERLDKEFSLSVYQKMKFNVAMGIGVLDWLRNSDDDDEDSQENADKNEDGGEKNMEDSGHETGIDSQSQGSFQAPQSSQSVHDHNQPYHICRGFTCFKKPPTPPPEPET
Chain of Nonstructural protein 1 (Q194T2 whole entry): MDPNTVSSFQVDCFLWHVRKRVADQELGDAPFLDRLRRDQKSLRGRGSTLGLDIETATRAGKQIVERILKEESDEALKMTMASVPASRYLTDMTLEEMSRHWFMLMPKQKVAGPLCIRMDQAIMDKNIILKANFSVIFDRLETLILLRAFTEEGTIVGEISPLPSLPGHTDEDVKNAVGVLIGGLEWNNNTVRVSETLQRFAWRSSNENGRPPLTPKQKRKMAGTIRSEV
Chain of Genome polyprotein (P29990 2492-3391 limits assumed): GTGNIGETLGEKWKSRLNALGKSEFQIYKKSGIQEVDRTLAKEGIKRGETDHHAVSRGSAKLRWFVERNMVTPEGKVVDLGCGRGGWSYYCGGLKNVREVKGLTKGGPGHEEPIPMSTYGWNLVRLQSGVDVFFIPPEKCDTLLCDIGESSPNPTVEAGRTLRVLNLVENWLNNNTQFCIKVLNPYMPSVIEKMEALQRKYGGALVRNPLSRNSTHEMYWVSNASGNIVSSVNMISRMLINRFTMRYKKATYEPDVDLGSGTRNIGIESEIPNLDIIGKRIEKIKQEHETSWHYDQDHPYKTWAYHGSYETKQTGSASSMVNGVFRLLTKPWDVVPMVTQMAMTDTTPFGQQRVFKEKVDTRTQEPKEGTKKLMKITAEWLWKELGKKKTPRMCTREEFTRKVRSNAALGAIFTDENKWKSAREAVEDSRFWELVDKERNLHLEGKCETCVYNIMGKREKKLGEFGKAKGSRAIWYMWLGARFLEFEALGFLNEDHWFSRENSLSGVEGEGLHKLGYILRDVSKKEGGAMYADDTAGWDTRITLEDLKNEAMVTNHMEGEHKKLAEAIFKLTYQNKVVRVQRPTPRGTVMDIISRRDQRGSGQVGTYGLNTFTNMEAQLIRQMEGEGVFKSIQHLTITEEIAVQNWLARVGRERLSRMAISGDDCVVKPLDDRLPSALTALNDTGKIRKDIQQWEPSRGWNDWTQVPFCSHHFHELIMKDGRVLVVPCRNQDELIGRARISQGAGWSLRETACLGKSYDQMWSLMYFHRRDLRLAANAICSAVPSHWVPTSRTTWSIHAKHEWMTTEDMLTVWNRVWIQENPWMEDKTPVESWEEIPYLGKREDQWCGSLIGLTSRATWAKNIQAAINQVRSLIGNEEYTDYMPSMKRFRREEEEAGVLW

Structure (SMILES): CC1=NN(Cc2ccccc2)C(=O)/C1=C/c1ccc(N(C)C)cc1
- AC50 [1]: 4.15 µM (active)
- IC50 [2]: 50.9 µM (active)
- EC50 [3]: 1.22 µM (active)

Structure (SMILES): O=C(Nc1ccc(O)cc1)/C(=C\c1ccncc1)NC(=O)c1ccccc1
- IC50 [4]: 27.7 µM (active)

Structure (SMILES): COc1ccc(/C=N\NC(=O)c2ccccc2F)cc1COc1ccc(F)cc1F
- IC50 [5]: > 80 µM (inactive)

Structure (SMILES): CCOC(=O)CSC1=C(C#N)C(c2ccc(C)s2)CC(=O)N1 (stereo unspecified)
- IC50 [5]: > 80 µM (inactive)

Structure (SMILES): CC1=C(C#N)c2nc(N)c(C#N)c(C)c2/C1=C\c1ccc(OCC(=O)O)c(Cl)c1
- IC50 [4]: 44.3 µM (active)
- EC50 [6]: > 195 µM (not active)
- IC50 [7]: 35.9 µM (active)

Structure (SMILES): COc1ccc(NCc2nc3ccccc3n2CCOc2ccccc2)cc1
- EC50 [8]: 2.36 µM (active)
- EC50 [9]: 53.4 µM (active)
- CC50 [10]: > 40 µM (active)
- EC50 [11]: 79.8 µM (active)
- EC50 [12]: 7.26 µM (active)
- EC50 [13]: > 60 µM (not active)

Structure (SMILES): CCOc1cc(C(=O)N/N=C/C(Br)=C/c2ccccc2)cc(OCC)c1OCC
- EC50 [14]: 1.39 µM (active)
- EC50 [15]: 1.34 µM (active)
- IC50 [5]: > 80 µM (inactive)

Structure (SMILES): COc1cc(C(=O)Nc2cc(C)c(OCC(=O)N3CCOCC3)c(C)c2)cc(OC)c1OC
- IC50 [16]: > 80 µM (inactive)

Structure (SMILES): Nn1c(SC/C=C/c2ccccc2)nnc1-c1ccccn1
- IC50 [2]: 24 µM (active)

Structure (SMILES): CN1CCN(C(=O)c2ccccc2N(Cc2ccccc2)S(=O)(=O)c2ccccc2)CC1
- IC50 [16]: > 80 µM (inactive)

Structure (SMILES): CCC1C(c2ccccc2)N(C)C(c2ccccc2)CC1(O)c1ccccc1 (stereo unspecified)
- EC50 [8]: 2.31 µM (active)
- CC50 [10]: > 40 µM (active)
- EC50 [13]: > 60 µM (not active)

Structure (SMILES): C=C(C)COc1ccc(-c2n[nH]cc2-c2ccc(OC)c(OC)c2)c(O)c1
- EC50 [17]: 2.4 µM (active)
- EC50 [18]: 1.84 µM (active)
- EC50 [19]: 8.31 µM (active)
- EC50 [20]: 2.48 µM (active)
- AC50 [21]: 0.882 µM (active)
- IC50 [5]: 34.3 µM (inactive)

Structure (SMILES): COc1ccc(CNc2ccc(N3CCOCC3)cc2)cc1
- IC50 [4]: 16.8 µM (active)

Structure (SMILES): COc1ccc(-c2ccc(F)cc2)cc1[C@H]1[C@H]2C=CC[C@@H](C)[C@@H]2C(=O)N1Cc1ccccc1
- IC50 [16]: > 80 µM (inactive)

Structure (SMILES): Cc1ccc(S(=O)(=O)N2CCN(C(=O)c3ccc(N4CCCC4)c([N+](=O)[O-])c3)CC2)cc1
- IC50 [2]: > 100 µM (active)

Structure (SMILES): CCCCC(=O)Nc1sc(C(=O)N(CC)CC)c(C)c1C(=O)OC
- IC50 [22]: 49.6 µM (active)
- EC50 [6]: > 195 µM (not active)

Structure (SMILES): O=C(CCCN1C(=O)/C(=C/c2ccccc2Cl)SC1=S)Nc1cccnc1
- IC50 [16]: > 80 µM (inactive)
